In brackets after ≈: the same amount, converted by molar mass. Where two headings read alike, the source gives them in different places.
Key:
MRSA Strain 43300 [1] = assay: Broth microdilution MIC determination; type: cell-based; conditions: Staphylococcus aureus
Method: (§1) General Information. Methicillin-resistant Staphylococcus aureus (MRSA) strains were obtained from the Laboratory of Professor Christian Melander (NCSU) ATCC (33591, BAA 44, BAA 1685, BAA 1770, BAA 43 300) and colonies were grown on solid media as instructed. Mueller-Hinton broth (MHB, 211443-BD), tryptic soy broth (TSB, Remel: R455052) and D-glucose (CAS: 492-62-6) were purchased from Fisher Scientific. Tryptic soy agar (TSA, cat. #22091) and Linezolid (cat. # P70014) were purchased from Sigma-Aldrich. Bacteria for biofilm inhibition and dispersion assays were cultured overnight in TSBG (tryptic soy broth with 0.5% glucose supplement). All assays were run in duplicate and repeated at least two separate times for MIC assays and at least four separate times for biofilm inhibition and dispersion assays. All compounds were dissolved molecular biology grade DMSO as 100 mM stock solutions and further diluted to 10 and 1 mM stock solutions as needed. Optical densities were measured using a Thermo Scientific Genesys 20 spectrophotometer. Data for biofilm inhibition and dispersion assays was collected using a BioTek ELx808 Microplate Reader. All graphs were generated and analyzed using GraphPad Prism 7.
Broth microdilution protocol for minimum inhibition concentration (MIC) determination. Studies were performed using the standard method prescribed by the Clinical and Laboratory Standards Institute (CLSI) M07-A8, Vol. 29 (2), which is hereby incorporated herein by reference. Briefly, fresh Mueller-Hinton broth (MHB) ˜3 ml, was inoculated (5×10^5 CFU mL^−1) with MRSA (ATCC 33591) methicillin-resistant Staphylococcus aureus. The resulting bacterial suspension was aliquoted (1 mL) into culture tubes and test compound (10 mM DMSO stock solution) was added to reach the final concentration of the interest. Bacteria not treated with the antimicrobial compound served as the control. Rows 2-12 of a 96-well microtiter plate were filled with remaining bacterial subcultures. The samples containing test compound were aliquoted (200 μL) into the first row wells of the microtiter plate (2 wells per compound). Row 1 wells were mixed 6-8 times and 100 μL was transferred down to row 2. Row 2 wells were mixed 6-8 times, followed by a 100 μL transfer from row 2 down to row 3. The rest of the rows of the plate were serially diluted in similar fashion. The plate was covered with sealing tape for 96-well plates (ThermoFisher) and incubated under stationary conditions at 37° C. A duplicate of the plate was prepared.

MRSA ATCC BAA-44 [2] = assay: Broth microdilution MIC determination; type: cell-based, Staphylococcus aureus; conditions: for MIC: Staphylococcus aureus
MRSA ATCC BAA-44 [3] = assay: Biofilm dispersion assay (crystal violet, pre-formed biofilm); type: cell-based; conditions: Staphylococcus aureus, Table 2
MRSA Strain 1685 [4] = assay: Biofilm inhibition assay (crystal violet); type: cell-based; conditions: Staphylococcus aureus, read-out: % Biofilm Inhibition (5/40 μM)
Method: as §1
Biofilm Inhibition Assay. Studies were performed using the standard method described in S. A. Rogers and C. Melander, Angew Chem Int Ed, 2008, 47, 5229-5231. Briefly, biofilm inhibition assays were performed by taking an overnight culture of bacterial strain and subculturing it at an OD600 of 0.01 into the necessary growth liquid medium (LB for A. baumannii, LBNS for P. aeruginosa, Stainer-Scholte medium that was supplemented with 10 μL/mL of 100× nutrient complex for B. bronchiseptica and TSB w/0.3% glucose for S. aureus) for the strain. The compound being tested was then added at a predetermined concentration and then aliquoted (100 μL) into the wells of a 96-well PVC microtiter plate (wells not used for samples are filled with 100 μL of de-ionized water). Plates were then wrapped in GLAD Press n' Seal and incubated under stationary conditions at 37° C. After 24 hours, the media was discarded from the wells and the plates were washed thoroughly with tap water. Plates were then stained with 100 μL of 0.1% solution of crystal violet (CV) and then incubated at an ambient temperature for 30 minutes. Sample plates were then washed with tap water again and the remaining stain was solubilized with 200 μL of 95% ethanol. Biofilm inhibition was quantitated by measuring the OD540 for each well by transferring 125 μL of the solubilized CV stain into a polystyrene microtiter dish for analysis. Biofilm inhibition was quantified by measuring the OD540 of each well and calculated as a percentage of the control (no compound); a negative control lane wherein no biofilm was formed served as a background and was subtracted out.
(§2) Percent inhibition was then plotted against concentration in Prism 7. Each of the four experiments were plotted separately and analyzed by a normalized nonlinear regression. The IC50 values reported represent an arithmetic mean of the four IC50 values. Biofilm data represent four separate experiments, with each experiment performed in duplicate (average of 8 data points for each concentration tested, unless otherwise noted)

MRSA Strain 1685 [5] = assay: Biofilm dispersion assay (crystal violet); type: cell-based, Staphylococcus aureus
Method: as §1
(§3) Biofilm Dispersion Assay. Studies were performed using the standard method described in J. J. Richards, T. E. Ballard and C. Melander, Org Biomol Chem, 2008, 6, 1356-1363. Briefly, dispersion assays were performed by taking an overnight culture of bacterial strain and subculturing it at an OD600 of 0.01 into the necessary growth liquid medium. The resulting bacterial suspension was aliquoted (100 μL) into the wells of a 96-well PVC microtiter plate. Plates were then wrapped in GLAD Press n' Seal followed by an incubation under stationary conditions at an ambient temperature. After 24 hours, the media was discarded from the wells and the plates were washed thoroughly with tap water. Predetermined concentrations of the test compound were then made in the same medium used to initially grow the biofilms and then aliquoted (100 μL) into the wells of the 96-well PVC microtiter plate with the established biofilms. Plates were then wrapped in GLAD Press n'Seal and incubated under stationary conditions at 37° C. After 24 hours, the media was discarded from the wells and the plates were washed thoroughly with tap water. Plates were then stained with 100 μL of 0.1% solution of crystal violet (CV) and then incubated at room temperature for 30 minutes. Plates were then washed with tap water again and the remaining stain was solubilized with 200 μL of 95% ethanol. Biofilm dispersion was quantitated by measuring the OD540 for each well by transferring 125 μL of the solubilized CV stain into a polystyrene microtiter dish for analysis. Biofilm inhibition was quantified by measuring the OD540 of each well and calculated as a percentage of the control (no compound), a negative control lane wherein no biofilm was formed served as a background and was subtracted out.
as §2, with “dispersion” for “inhibition”

MRSA Strain 43300 [6] = assay: Biofilm dispersion assay (crystal violet); type: cell-based, Staphylococcus aureus; conditions: for % Biofilm Dispersion (5/40 μM): MRSA strain 43300
Method: as §1, §3
as §2, with “dispersion” for “inhibition”

MRSA Strain 1770 = assay: Biofilm dispersion assay (crystal violet); type: cell-based, Staphylococcus aureus
Method: as §1, §3
as §2, with “dispersion” for “inhibition”

[7] = MRSA ATCC BAA 44, Table 2, read-out: MIC
[8] = MRSA ATCC BAA-44, Table 1, read-out: Antimicrobial Activity MIC

Question: Which results are given for `CCCCC(Cl)(Cl)C1NC(=O)/C(=C/c2ccc(C(F)(F)F)cc2)O1` (stereo not drawn) [Compound 1, (Z)-2-(1,1-dichloropentyl)-5-(4-(trifluoromethyl)benzylidene)oxazolidin-4-one]?
Answer: MIC (MRSA Strain 43300 [1]): 8 µg/mL (≈ 20.9 µM); MIC (MRSA ATCC BAA-44 [2]; MRSA ATCC BAA-44, read-out: MIC): 12000 µg/mL (≈ 31400 µM); MIC (MRSA ATCC BAA-44 [2]; [7]): 12 µg/mL (≈ 31.4 µM); MIC (MRSA ATCC BAA-44 [2]; [8]): 12 µg/mL (≈ 31.4 µM); inhibition at 40 µM (MRSA ATCC BAA-44 [3]): 87%; inhibition at 5 µM (MRSA Strain 1685 [4]): 45%; inhibition at 40 µM (MRSA Strain 1685 [4]): 66%; % Biofilm Dispersion (5/40 μM) (MRSA Strain 1685 [5]; 5 μM): 24%; % Biofilm Dispersion (5/40 μM) (MRSA Strain 1685 [5]; 40 μM): 61%; % Biofilm Dispersion (5/40 μM) (MRSA Strain 43300 [6]; 5 μM): 23%; % Biofilm Dispersion (5/40 μM) (MRSA Strain 43300 [6]; 40 μM): 63%; % Biofilm Dispersion (5/40 μM) (MRSA Strain 1770; 5 μM): 52%; % Biofilm Dispersion (5/40 μM) (MRSA Strain 1770; 40 μM): 46%

Question: Which results are given for `O=C1NC(C(Cl)(Cl)Cc2ccccc2)O/C1=C\c1ccc(C(F)(F)F)cc1` (stereo not drawn) [Compound 2, (Z)-2-(1,1-dichloro-2-phenylethyl)-5-(4-(trifluoromethyl)benzylidene)oxazolidin-4-one]?
Answer: MIC (MRSA Strain 43300 [1]): 8 µg/mL (≈ 19.2 µM); MIC (MRSA ATCC BAA-44 [2]; [7]): 6 µg/mL (≈ 14.4 µM); MIC (MRSA ATCC BAA-44 [2]; [8]): 6 µg/mL (≈ 14.4 µM); fold enhancement of the MIC (MRSA ATCC BAA-44 [2]; benzyl side chain (2) versus n-butyl side chain (1)): 2 fold; inhibition at 40 µM (MRSA ATCC BAA-44 [3]): 69%; inhibition at 5 µM (MRSA Strain 1685 [4]): 19%; inhibition at 40 µM (MRSA Strain 1685 [4]): 17%; % Biofilm Dispersion (5/40 μM) (MRSA Strain 1685 [5]; 5 μM): 15/− %; % Biofilm Dispersion (5/40 μM) (MRSA Strain 43300 [6]; 5 μM): 37/− %; biofilm dispersion activity (in words) (MRSA Strain 43300 [6]; MRSA strain 43 300): no dose-dependent dispersion activity; % Biofilm Dispersion (5/40 μM) (MRSA Strain 1770; 5 μM): 29/− %
